Experimental data as given in patent publication US10206944B2, “Chondroitin for use in medicine” (ALTERGON S.A., priority 2012, dated 2019).

Experiments:
Sox9 = experiment: Real-Time PCR gene expression in human chondrocytes: Sox9; format: cell-based; conditions: 1% w/v, ratio to untreated control
Method: To evaluate the biological effects of chondroitin on human chondrocyte cultures, the expression of a set of genes considered key to establishing the phenotype, and suitable markers for evaluating the quality of the tissue generated, was determined. The study was conducted on chondrocytes prepared from human cartilage, as reported in Example 2, the cells being grown in the presence of chondroitin or chondroitin sulphate. Using a standard procedure, 5*10^4 cells per well were seeded in a 24-well multiwell plate. The chondrocytes were grown in DMEM containing 1% w/v of chondroitin or chondroitin sulphate (endotoxin content ≤0.1 EU/mg). The cells were stimulated for 4, 7 and 10 days (Ishak et al., International J. of Pediatric Otorhinolaryngology, 2011, 75: 835-840), after which the RNA was extracted with Trizol Reagent, as described in the kit manual (Life Technologies Ltd, Milan, Italy). A qualitative morphological analysis of the cell culture was also conducted at the various times, in parallel with RNA extraction, by observing the corresponding samples at 4, 7 and 10 days under the optical microscope. The cells seeded at the three different times were observed under the microscope, and the images that best represented the cell growth conditions were acquired using a time-lapse videomicroscopy workstation. After RNA extraction, reverse transcription was performed with a total of 1 μg RNA and then with amplification by Real-Time PCR of genes which are specific markers for chondrocytes (Table 3).
Genes connected with matrix production, such as aggrecan, type I collagen, type II collagen and the Sox9 gene, the expression of which is closely correlated with the expression of type II collagen, were analysed as specific markers for differentiation and characterisation of chondrocytes. (Akiyama H., Mod Rheumatol., 2008, 18(3): 213-9; Yang et al., J. of Orthopaedic Res. 2011).
The gene expression of said markers on human chondrocytes cultured in basic medium (control) and with chondroitin treatment (C) or chondroitin sulphate treatment (CS) was analysed on cell cultures in the second and third growth phases.
The results of the gene expression analysis were reported as the average of at least 3 independent experiments for tests conducted in the presence of C or CS, on cells in phases 2 and 3.

[1] = tested on: Escherichia coli strain ATCC 25922; experiment: Inhibition of bacterial growth on plate, E. coli; format: cell-based
Method: The antibacterial activity of chondroitin (C) and chondroitin sulphate (CS) on the growth of Escherichia coli ATCC 25922 and Enterococcus faecalis ATCC 19433 on a solid medium in vitro was examined. The concentrations explored ranged from 40 μg/mL to 40 mg/mL of C or CS as final concentrations in the medium. Brain-heart infusion (Oxoid) was used as culture medium for E. coli ATCC 25922, and M17 (Oxoid) for E. faecalis ATCC 19433; both media were adjusted to the same pH and the same osmolarity before being solidified by adding agar and cooled. 100 μL of a bacterial suspension containing 10^2, 10^3 or 10^4 bacteria/mL was plated as inoculum. The plates inoculated were incubated in shakers in air at 37° C. for 16 h. The number of colonies was then counted on control plates in the absence of the substances under study and on plates at the various concentrations of C and CS. The data from the experiments for the two micro-organisms, conducted in triplicate for each of the conditions, are shown in tables 7 and 8.

[2] = tested on: mice or Sprague Dawley rats; experiment: Acute toxicity study; format: in vivo, mouse and rat
Method: Acute toxicity study—The study was conducted on two animal models, the mouse and rat, to which chondroitin was administered orally (p.o.) or intravenously (i.v.). For each experiment the animals (mice or Sprague Dawley rats) were divided into 5 groups of 20 (10 males and 10 females) which received p.o. or i.v. chondroitin at doses ranging from 250 to 2,000 mg/Kg for oral administration and 20 to 160 mg/Kg for intravenous administration; the volume administered was 10 mL/Kg for p.o. administration and 5 mL/Kg for i.v. administration.
At the end of the treatment the animals were euthanized and a complete autopsy was performed.

[3] = tested on: volunteers suffering from dry eye; experiment: Ophthalmic eyedrops in volunteers suffering from dry eye; format: in vivo, human
Method: Two ophthalmic preparations were compared: a conventional one based on hyaluronic acid and one based on chondroitin, both at the concentration of 3% w/v in NaCl saline solution at pH 7.4. The eyedrops were prepared in single-dose packaging sterilised in the autoclave. […] The volunteers, of both sexes, aged between 45 and 60 years, were randomised into two groups of 15, and treated with the two types of eyedrops. Under medical control the inflammatory state of the corneal surface was evaluated at the beginning and end of the treatment, and the evaluations of the treated patients relating to tolerability, duration of the wetting effect, and visual alteration after application, were recorded. A scale of 1 to 5 was used for the clinical evaluations and the patients' evaluations, where 5 represents optimum resolution of the pathological condition and its sequelae. […]

[4] = 40 μg/mL, 10 bacteria inoculated
[5] = 40 μg/mL, 100 bacteria inoculated
[6] = 40 μg/mL, 1000 bacteria inoculated
[7] = 400 μg/mL, 10 bacteria inoculated
[8] = 400 μg/mL, 100 bacteria inoculated
[9] = 400 μg/mL, 1000 bacteria inoculated
[10] = 4 mg/mL, 10 bacteria inoculated
[11] = 4 mg/mL, 100 bacteria inoculated
[12] = 4 mg/mL, 1000 bacteria inoculated
[13] = 40 mg/mL, 10 bacteria inoculated
[14] = 40 mg/mL, 100 bacteria inoculated
[15] = 40 mg/mL, 1000 bacteria inoculated

Substance	Fold Expression, Sox9 (Sox9; phase II, 4 g)	Fold Expression, Sox9 (Sox9; phase II, 7 g)	Fold Expression, Sox9 (Sox9; phase II, 10 g)	Fold Expression, Sox9 (Sox9; phase III, 4 g)	Fold Expression, Sox9 (Sox9; phase III, 7 g)	Fold Expression, Sox9 (Sox9; phase III, 10 g)	Inhibition factor ([1]; 40 μg/mL)	CFU after 16 h [1, 4] [CFU]	CFU after 16 h [1, 5] [CFU]	CFU after 16 h [1, 6] [CFU]	Inhibition factor ([1]; 400 μg/mL)	Qualitative valuation of inhibition ([1]; 400 μg/mL)	CFU after 16 h [1, 7] [CFU]	CFU after 16 h [1, 8] [CFU]	CFU after 16 h [1, 9] [CFU]	Inhibition factor ([1]; 4 mg/mL)	Qualitative valuation of inhibition ([1]; 4 mg/mL)	CFU after 16 h [1, 10] [CFU]	CFU after 16 h [1, 11] [CFU]	CFU after 16 h [1, 12] [CFU]	also measured
chondroitin	1.87 ± 0.85	1.16 ± 0.15	1.78 ± 0.75	3.68 ± 0.44	1.09 ± 0.01	0.53 ± 0.02	1.3	7 ± 2	80 ± 5	800 ± 70	9	significant	2 ± 1	10 ± 2	120 ± 30	66	high	0	1 ± 1	20 ± 4	Qualitative valuation of inhibition ([1]; 40 μg/mL): mild; Inhibition factor ([1]; 40 mg/mL): 1000; Qualitative valuation of inhibition ([1]; 40 mg/mL): total inhibition of growth; CFU after 16 h [1, 13]: 0 CFU; CFU after 16 h [1, 14]: 0 CFU; CFU after 16 h [1, 15]: 0 CFU; LD50 ([2]; acute, single dose i.v., mouse and rat): > 160 mg/kg; signs of toxicity or mortality ([2]; examined every 24 h for 40 days, up to 2,000 mg/Kg p.o., 160 mg/Kg i.v.): no signs of toxicity or mortality were observed; Doctor: corneal inflammation ([3]; 0 days, 3% w/v eyedrops, scale of 1 to 5, 5 optimum): 1.1 ± 0.2; Patient: absence of visual alteration ([3]; 10 days, scale of 1 to 5): 4.6 ± 0.2; Patient: tolerability ([3]; 10 days, scale of 1 to 5): 4.7 ± 0.2; Patient: wetting effect ([3]; 10 days, scale of 1 to 5): 4.8 ± 0.3; Patient: absence of visual alteration ([3]; 20 days, scale of 1 to 5): 4.7 ± 0.1; Patient: tolerability ([3]; 20 days, scale of 1 to 5): 4.5 ± 0.5; Patient: wetting effect ([3]; 20 days, scale of 1 to 5): 4.6 ± 0.2; Doctor: corneal inflammation ([3]; 30 days, 3% w/v eyedrops 4 times a day, scale of 1 to 5): 4.2 ± 0.3; Patient: absence of visual alteration ([3]; 30 days, scale of 1 to 5): 4.8 ± 0.1; Patient: tolerability ([3]; 30 days, scale of 1 to 5): 4.8 ± 0.1; Patient: wetting effect ([3]; 30 days, scale of 1 to 5): 4.9 ± 0.1
chondroitin sulphate [CS, reference compound]	2.2 ± 1.20	0.86 ± 0.31	0.53 ± 0.02	2.6 ± 1.21	1.41 ± 0.04	0.81 ± 0.05	1	7 ± 2	85 ± 7	860 ± 70	2	mild	5 ± 1	50 ± 5	400 ± 70	10	significant	0	9 ± 2	100 ± 10	Inhibition factor ([1]; 40 mg/mL): 330; Qualitative valuation of inhibition ([1]; 40 mg/mL): high; CFU after 16 h [1, 13]: 0 CFU; CFU after 16 h [1, 14]: 0 CFU; CFU after 16 h [1, 15]: 3 ± 1 CFU
